Assay results from patent publication US8192962B2, “Processes for detecting toxic substances” (Daikin Industries, Ltd., priority 2001, dated 2012).

System: Metabolism protein genes
Test: DNA chip mRNA expression in yeast, metabolism protein genes (Table 7)
Assay type: cell-based, Saccharomyces cerevisiae S288C
Experimental: Yeast (Saccharomyces cerevisiae S288C (α SUC2mal mel gap2 CUP1)) were incubated at 25° C. on YPD medium (yeast extract 1%, polypepton 2%, glucose 2%). One of toxic chemical substances was added to the cells at logarithmic growth phase, and the cells were further incubated for two hours. Cells were cultured without any chemical substance in the same condition, and were used as control. Concentrations of the chemical substances were defined to inhibit the growth of the yeast but not lead to death.
After completion of the incubation, the culture was centrifuged to collect the cells. To the cells, sodium acetate buffer (50 mM sodium acetate, 10 mM EDTA, 1% SDS) was added, and the mixture was shaken at 65° C. for five minutes, followed by returning to room temperature, and obtaining the supernatant, of which the procedures were repeated two times. To the supernatant, ½ amount of a solution of phenol/chloroform was added, and the mixture was centrifuged to give a supernatant, which was added with an equal amount of chloroform, and the mixture was centrifuged to give a supernatant. To the supernatant, an equal amount of isopropanol containing 0.3 M sodium acetate was added, and the mixture was allowed to stand at room temperature for 30 minutes, after which the mixture was centrifuged to give a sediment of the whole RNAs. Seventy % ethanol was added to the sediment, and the mixture was again centrifuged to give a sediment, which was then dried and dissolved in water. mRNA was isolated from the whole RNAs as followings. In view of the fact that a poly A chain is attached to the 3′ terminus of mRNA, a polynucleotide having a poly T structure which was immobilized on the surface of latex beads was used to trap the mRNA, and then the mRNA was washed and eluted with spine column (Oligotex-dT30<Super>mRNA Purification Kit, Takara). Reverse transcription of the mRNA was conducted with a reverse transcriptase (Super Script II Reverse Transcriptase; catalogue No. 18064-014, GibcoBRL) using fluorescence-labeled nucleotides to give cDNAs that were introduced with Cy3-dUTP or Cy5-dUTP during the reverse transcription.
The labeled cDNAs were dissolved in TE buffer (10mM Tris-HCl/1 mM EDTA, pH8.0), and the solution was dropped on the DNA chip containing the whole genes of yeast (DNA Chip Research Inc. Japan) so that the cDNAs were hybridized on the DNA chip at 65° C. for over 12 hours. The fluoresces intensity of the DNA chip was read with a scanner, and the ratio relative to the fluorescence intensity resulting from the absence of chemical substance was estimated as the following, which is shown in Tables 1 to 9: […]

Na2As [(1)]
The level of expressed mRNA in the presence of chemical substance/The level of expressed mRNA in the absence of chemical substance (yeast gene YAL012W): 1.1 | The level of expressed mRNA in the presence of chemical substance/The level of expressed mRNA in the absence of chemical substance (yeast gene YAL038W): 1.0 | level of expressed mRNA in the presence/in the absence of chemical substance (yeast gene YBR003W): 0.9 | level of expressed mRNA in the presence/in the absence of chemical substance (yeast gene YBR011C): 1.3 | level of expressed mRNA in the presence/in the absence of chemical substance (yeast gene YBR020W): 1.0 | The level of expressed mRNA in the presence of chemical substance/The level of expressed mRNA in the absence of chemical substance (yeast gene YBR023C): 0.5 | The level of expressed mRNA in the presence of chemical substance/The level of expressed mRNA in the absence of chemical substance (yeast gene YBR029C): 0.7 | The level of expressed mRNA in the presence of chemical substance/The level of expressed mRNA in the absence of chemical substance (yeast gene YBR183W): 1.8 | The level of expressed mRNA in the presence of chemical substance/The level of expressed mRNA in the absence of chemical substance (yeast gene YBR222C): 0.6 | The level of expressed mRNA in the presence of chemical substance/The level of expressed mRNA in the absence of chemical substance (yeast gene YBR256C): 3.0 | The level of expressed mRNA in the presence of chemical substance/The level of expressed mRNA in the absence of chemical substance (yeast gene YCL009C): 0.6 | The level of expressed mRNA in the presence of chemical substance/The level of expressed mRNA in the absence of chemical substance (yeast gene YCL064C): 0.6 | level of expressed mRNA in the presence/in the absence of chemical substance (yeast gene YCR010C): 1.6 | level of expressed mRNA in the presence/in the absence of chemical substance (yeast gene YCR034W): 0.8 | The level of expressed mRNA in the presence of chemical substance/The level of expressed mRNA in the absence of chemical substance (yeast gene YCR048W): 0.5 | The level of expressed mRNA in the presence of chemical substance/The level of expressed mRNA in the absence of chemical substance (yeast gene YCR098C): 1.6 | The level of expressed mRNA in the presence of chemical substance/The level of expressed mRNA in the absence of chemical substance (yeast gene YDR019C): 1.4 | level of expressed mRNA in the presence/in the absence of chemical substance (yeast gene YDR050C): 1.6 | level of expressed mRNA in the presence/in the absence of chemical substance (yeast gene YDR073W): 1.7 | level of expressed mRNA in the presence/in the absence of chemical substance (yeast gene YDR123C): 1.2 | level of expressed mRNA in the presence/in the absence of chemical substance (yeast gene YDR178W): 2.0 | level of expressed mRNA in the presence/in the absence of chemical substance (yeast gene YDR277C): 1.6 | level of expressed mRNA in the presence/in the absence of chemical substance (yeast gene YDR284C): 0.8 | level of expressed mRNA in the presence/in the absence of chemical substance (yeast gene YDR345C): 0.8 | The level of expressed mRNA in the presence of chemical substance/The level of expressed mRNA in the absence of chemical substance (yeast gene YDR380W): 0.8 | level of expressed mRNA in the presence/in the absence of chemical substance (yeast gene YDR400W): 1.0 | level of expressed mRNA in the presence/in the absence of chemical substance (yeast gene YDR408C): 1.0 | level of expressed mRNA in the presence/in the absence of chemical substance (yeast gene YDR483W): 1.1 | The level of expressed mRNA in the presence of chemical substance/The level of expressed mRNA in the absence of chemical substance (yeast gene YDR497C): 0.7 | The level of expressed mRNA in the presence of chemical substance/The level of expressed mRNA in the absence of chemical substance (yeast gene YDR502C): 1.2 | The level of expressed mRNA in the presence of chemical substance/The level of expressed mRNA in the absence of chemical substance (yeast gene YDR516C): 1.2 | level of expressed mRNA in the presence/in the absence of chemical substance (yeast gene YEL063C): 0.7 | level of expressed mRNA in the presence/in the absence of chemical substance (yeast gene YER015W): 0.7 | The level of expressed mRNA in the presence of chemical substance/The level of expressed mRNA in the absence of chemical substance (yeast gene YER026C): 0.8 | The level of expressed mRNA in the presence of chemical substance/The level of expressed mRNA in the absence of chemical substance (yeast gene YER053C): 1.6 | The level of expressed mRNA in the presence of chemical substance/The level of expressed mRNA in the absence of chemical substance (yeast gene YER069W): 1.3 | level of expressed mRNA in the presence/in the absence of chemical substance (yeast gene YER081W): 1.6 | The level of expressed mRNA in the presence of chemical substance/The level of expressed mRNA in the absence of chemical substance (yeast gene YER096W): 1.1 | level of expressed mRNA in the presence/in the absence of chemical substance (yeast gene YER120W): 0.9 | The level of expressed mRNA in the presence of chemical substance/The level of expressed mRNA in the absence of chemical substance (yeast gene YER178W): 0.8 | level of expressed mRNA in the presence/in the absence of chemical substance (yeast gene YFL011W): 1.2 | The level of expressed mRNA in the presence of chemical substance/The level of expressed mRNA in the absence of chemical substance (yeast gene YFL014W): 3.4 | The level of expressed mRNA in the presence of chemical substance/The level of expressed mRNA in the absence of chemical substance (yeast gene YFL030W): 1.6 | The level of expressed mRNA in the presence of chemical substance/The level of expressed mRNA in the absence of chemical substance (yeast gene YFL031W): 0.5 | The level of expressed mRNA in the presence of chemical substance/The level of expressed mRNA in the absence of chemical substance (yeast gene YFL056C): 19.0 | The level of expressed mRNA in the presence of chemical substance/The level of expressed mRNA in the absence of chemical substance (yeast gene YFL057C): 20.9 | The level of expressed mRNA in the presence of chemical substance/The level of expressed mRNA in the absence of chemical substance (yeast gene YFR047C): 1.3 | level of expressed mRNA in the presence/in the absence of chemical substance (yeast gene YGL012W): 1.0 | The level of expressed mRNA in the presence of chemical substance/The level of expressed mRNA in the absence of chemical substance (yeast gene YGL022W): 0.5 | level of expressed mRNA in the presence/in the absence of chemical substance (yeast gene YGL115W): 0.9 | The level of expressed mRNA in the presence of chemical substance/The level of expressed mRNA in the absence of chemical substance (yeast gene YGL126W): 0.6 | level of expressed mRNA in the presence/in the absence of chemical substance (yeast gene YGL205W): 0.9 | The level of expressed mRNA in the presence of chemical substance/The level of expressed mRNA in the absence of chemical substance (yeast gene YGL209W): 1.2 | The level of expressed mRNA in the presence of chemical substance/The level of expressed mRNA in the absence of chemical substance (yeast gene YGL248W): 1.3 | The level of expressed mRNA in the presence of chemical substance/The level of expressed mRNA in the absence of chemical substance (yeast gene YGR037C): 1.0 | The level of expressed mRNA in the presence of chemical substance/The level of expressed mRNA in the absence of chemical substance (yeast gene YGR055W): 2.5 | level of expressed mRNA in the presence/in the absence of chemical substance (yeast gene YGR096W): 1.5 | level of expressed mRNA in the presence/in the absence of chemical substance (yeast gene YGR191W): 0.8 | The level of expressed mRNA in the presence of chemical substance/The level of expressed mRNA in the absence of chemical substance (yeast gene YGR194C): 0.9 | level of expressed mRNA in the presence/in the absence of chemical substance (yeast gene YGR204W): 0.5 | The level of expressed mRNA in the presence of chemical substance/The level of expressed mRNA in the absence of chemical substance (yeast gene YGR256W): 1.2 | The level of expressed mRNA in the presence of chemical substance/The level of expressed mRNA in the absence of chemical substance (yeast gene YGR282C): 1.3 | level of expressed mRNA in the presence/in the absence of chemical substance (yeast gene YGR288W): 0.9 | level of expressed mRNA in the presence/in the absence of chemical substance (yeast gene YHR025W): 0.6 | The level of expressed mRNA in the presence of chemical substance/The level of expressed mRNA in the absence of chemical substance (yeast gene YHR111W): 1.4 | level of expressed mRNA in the presence/in the absence of chemical substance (yeast gene YHR123W): 0.7 | The level of expressed mRNA in the presence of chemical substance/The level of expressed mRNA in the absence of chemical substance (yeast gene YHR137W): 0.7 | The level of expressed mRNA in the presence of chemical substance/The level of expressed mRNA in the absence of chemical substance (yeast gene YHR174W): 1.1 | The level of expressed mRNA in the presence of chemical substance/The level of expressed mRNA in the absence of chemical substance (yeast gene YHR176W): 1.8 | level of expressed mRNA in the presence/in the absence of chemical substance (yeast gene YHR210C): 1.3 | level of expressed mRNA in the presence/in the absence of chemical substance (yeast gene YIL006W): 1.0 | The level of expressed mRNA in the presence of chemical substance/The level of expressed mRNA in the absence of chemical substance (yeast gene YIL045W): 1.7 | The level of expressed mRNA in the presence of chemical substance/The level of expressed mRNA in the absence of chemical substance (yeast gene YIL107C): 1.5 | The level of expressed mRNA in the presence of chemical substance/The level of expressed mRNA in the absence of chemical substance (yeast gene YIL154C): 0.8 | The level of expressed mRNA in the presence of chemical substance/The level of expressed mRNA in the absence of chemical substance (yeast gene YIL155C): 1.0 | The level of expressed mRNA in the presence of chemical substance/The level of expressed mRNA in the absence of chemical substance (yeast gene YIR034C): 1.2 | The level of expressed mRNA in the presence of chemical substance/The level of expressed mRNA in the absence of chemical substance (yeast gene YIR036C): 1.0 | The level of expressed mRNA in the presence of chemical substance/The level of expressed mRNA in the absence of chemical substance (yeast gene YJL031C): 1.6 | The level of expressed mRNA in the presence of chemical substance/The level of expressed mRNA in the absence of chemical substance (yeast gene YJL068C): 1.2 | The level of expressed mRNA in the presence of chemical substance/The level of expressed mRNA in the absence of chemical substance (yeast gene YJL088W): 0.9 | The level of expressed mRNA in the presence of chemical substance/The level of expressed mRNA in the absence of chemical substance (yeast gene YJL099W): 1.2 | level of expressed mRNA in the presence/in the absence of chemical substance (yeast gene YJL121C): 1.0 | level of expressed mRNA in the presence/in the absence of chemical substance (yeast gene YJL167W): 0.9 | The level of expressed mRNA in the presence of chemical substance/The level of expressed mRNA in the absence of chemical substance (yeast gene YJL172W): 0.8 | level of expressed mRNA in the presence/in the absence of chemical substance (yeast gene YJL216C): 0.8 | The level of expressed mRNA in the presence of chemical substance/The level of expressed mRNA in the absence of chemical substance (yeast gene YJL219W): 1.2 | level of expressed mRNA in the presence/in the absence of chemical substance (yeast gene YJR077C): 1.1 | The level of expressed mRNA in the presence of chemical substance/The level of expressed mRNA in the absence of chemical substance (yeast gene YJR137C): 2.7 | level of expressed mRNA in the presence/in the absence of chemical substance (yeast gene YJR143C): 0.6 | The level of expressed mRNA in the presence of chemical substance/The level of expressed mRNA in the absence of chemical substance (yeast gene YJR148W): 0.7
